Assays:
Test in all cases: biochemical
Conditions in all cases: read-out: %Ctrl @ 1000nM
[1] = biological target: T1, CTK (Homo sapiens, UniProt P42679)
T1 construct: gene MATK

[2] = biological target: NLK (Homo sapiens, UniProt Q9UBE8)
[3] = biological target: ABL1-nonphosphorylated (Homo sapiens, UniProt P00519)
[4] = biological target: NEK2 (Homo sapiens, UniProt P51955)
[5] = biological target: ALK(C1156Y) (Homo sapiens, UniProt Q9UM73, C1156Y)
[6] = biological target: PRKCH (Homo sapiens, UniProt P24723)
[7] = biological target: T2, PRKR (Homo sapiens, UniProt P19525)
T2 construct: gene EIF2AK2

[8] = biological target: T3, MRCKB (Homo sapiens, UniProt Q9Y5S2)
T3 construct: gene CDC42BPB

[9] = biological target: TNIK (Homo sapiens, UniProt Q9UKE5)
[10] = biological target: PRKD3 (Homo sapiens, UniProt O94806)
[11] = biological target: RIOK2 (Homo sapiens, UniProt Q9BVS4)
[12] = biological target: PRKD1 (Homo sapiens, UniProt Q15139)
[13] = biological target: T4, BRK (Homo sapiens, UniProt Q13882)
T4 construct: gene PTK6

[14] = biological target: PIK3CA(E545A) (Homo sapiens, UniProt P42336, E545A)
[15] = biological target: RPS6KA5(Kin.Dom.2-C-terminal) (Homo sapiens, UniProt O75582)
[16] = biological target: DAPK2 (Homo sapiens, UniProt Q9UIK4)
[17] = biological target: KIT-autoinhibited (Homo sapiens, UniProt P10721)
[18] = biological target: MAP4K3 (Homo sapiens, UniProt Q8IVH8)
[19] = biological target: SYK (Homo sapiens, UniProt P43405)
[20] = biological target: KIT(V559D,V654A) (Homo sapiens, UniProt P10721, V559D/V654A)
[21] = biological target: T5, NIK (Homo sapiens, UniProt Q99558)
T5 construct: gene MAP3K14

[22] = biological target: T6, PCTK2 (Homo sapiens, UniProt Q00537)
T6 construct: gene CDK17

[23] = biological target: BRSK2 (Homo sapiens, UniProt Q8IWQ3)
[24] = biological target: STK39 (Homo sapiens, UniProt Q9UEW8)
[25] = biological target: MAK (Homo sapiens, UniProt P20794)
[26] = biological target: PIK3CA(H1047L) (Homo sapiens, UniProt P42336, H1047L)
[27] = biological target: PIK3CG (Homo sapiens, UniProt P48736)
[28] = biological target: EPHB6 (Homo sapiens, UniProt O15197)
[29] = biological target: MAP3K4 (Homo sapiens, UniProt Q9Y6R4)
[30] = biological target: KIT(A829P) (Homo sapiens, UniProt P10721, A829P)
[31] = biological target: MARK3 (Homo sapiens, UniProt P27448)
[32] = biological target: CAMKK2 (Homo sapiens, UniProt Q96RR4)
[33] = biological target: MYLK2 (Homo sapiens, UniProt Q9H1R3)
[34] = biological target: MAP3K3 (Homo sapiens, UniProt Q99759)
[35] = biological target: ABL1(H396P)-nonphosphorylated (Homo sapiens, UniProt P00519, H396P)

MYLK2, sequence (Q9H1R3 whole entry): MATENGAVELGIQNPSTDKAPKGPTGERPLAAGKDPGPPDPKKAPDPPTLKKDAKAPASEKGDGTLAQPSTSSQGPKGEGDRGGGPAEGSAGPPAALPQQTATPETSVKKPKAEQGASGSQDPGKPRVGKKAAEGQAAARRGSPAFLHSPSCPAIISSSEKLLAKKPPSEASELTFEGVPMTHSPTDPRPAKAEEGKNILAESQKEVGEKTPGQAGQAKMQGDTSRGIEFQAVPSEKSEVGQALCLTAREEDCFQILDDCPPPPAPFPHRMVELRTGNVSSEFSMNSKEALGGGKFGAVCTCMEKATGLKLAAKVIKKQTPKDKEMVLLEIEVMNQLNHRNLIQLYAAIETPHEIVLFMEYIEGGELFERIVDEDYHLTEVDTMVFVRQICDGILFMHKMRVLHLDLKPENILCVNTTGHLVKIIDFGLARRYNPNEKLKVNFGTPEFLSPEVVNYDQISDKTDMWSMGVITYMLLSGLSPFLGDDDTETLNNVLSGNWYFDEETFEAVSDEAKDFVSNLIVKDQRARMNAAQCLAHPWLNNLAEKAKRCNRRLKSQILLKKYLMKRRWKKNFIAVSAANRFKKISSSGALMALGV
PRKCH, sequence (P24723 whole entry): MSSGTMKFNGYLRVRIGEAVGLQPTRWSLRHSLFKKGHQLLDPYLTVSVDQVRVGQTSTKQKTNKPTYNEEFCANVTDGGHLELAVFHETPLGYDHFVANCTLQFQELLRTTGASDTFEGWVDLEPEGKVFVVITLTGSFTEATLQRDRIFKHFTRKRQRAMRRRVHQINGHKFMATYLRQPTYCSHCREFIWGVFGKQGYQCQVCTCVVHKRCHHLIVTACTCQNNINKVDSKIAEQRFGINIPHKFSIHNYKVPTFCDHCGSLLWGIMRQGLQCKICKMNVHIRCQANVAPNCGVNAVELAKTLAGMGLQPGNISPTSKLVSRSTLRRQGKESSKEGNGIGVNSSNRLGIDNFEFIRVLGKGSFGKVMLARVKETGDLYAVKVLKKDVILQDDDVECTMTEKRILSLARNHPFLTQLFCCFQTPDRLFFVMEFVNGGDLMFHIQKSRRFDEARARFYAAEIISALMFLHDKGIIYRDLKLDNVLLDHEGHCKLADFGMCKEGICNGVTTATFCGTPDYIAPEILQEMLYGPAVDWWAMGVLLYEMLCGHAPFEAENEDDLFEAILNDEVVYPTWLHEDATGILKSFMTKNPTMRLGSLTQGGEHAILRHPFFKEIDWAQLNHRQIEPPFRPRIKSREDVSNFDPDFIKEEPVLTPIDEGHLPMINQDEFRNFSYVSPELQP
ALK(C1156Y), sequence (Q9UM73 whole entry C1156Y): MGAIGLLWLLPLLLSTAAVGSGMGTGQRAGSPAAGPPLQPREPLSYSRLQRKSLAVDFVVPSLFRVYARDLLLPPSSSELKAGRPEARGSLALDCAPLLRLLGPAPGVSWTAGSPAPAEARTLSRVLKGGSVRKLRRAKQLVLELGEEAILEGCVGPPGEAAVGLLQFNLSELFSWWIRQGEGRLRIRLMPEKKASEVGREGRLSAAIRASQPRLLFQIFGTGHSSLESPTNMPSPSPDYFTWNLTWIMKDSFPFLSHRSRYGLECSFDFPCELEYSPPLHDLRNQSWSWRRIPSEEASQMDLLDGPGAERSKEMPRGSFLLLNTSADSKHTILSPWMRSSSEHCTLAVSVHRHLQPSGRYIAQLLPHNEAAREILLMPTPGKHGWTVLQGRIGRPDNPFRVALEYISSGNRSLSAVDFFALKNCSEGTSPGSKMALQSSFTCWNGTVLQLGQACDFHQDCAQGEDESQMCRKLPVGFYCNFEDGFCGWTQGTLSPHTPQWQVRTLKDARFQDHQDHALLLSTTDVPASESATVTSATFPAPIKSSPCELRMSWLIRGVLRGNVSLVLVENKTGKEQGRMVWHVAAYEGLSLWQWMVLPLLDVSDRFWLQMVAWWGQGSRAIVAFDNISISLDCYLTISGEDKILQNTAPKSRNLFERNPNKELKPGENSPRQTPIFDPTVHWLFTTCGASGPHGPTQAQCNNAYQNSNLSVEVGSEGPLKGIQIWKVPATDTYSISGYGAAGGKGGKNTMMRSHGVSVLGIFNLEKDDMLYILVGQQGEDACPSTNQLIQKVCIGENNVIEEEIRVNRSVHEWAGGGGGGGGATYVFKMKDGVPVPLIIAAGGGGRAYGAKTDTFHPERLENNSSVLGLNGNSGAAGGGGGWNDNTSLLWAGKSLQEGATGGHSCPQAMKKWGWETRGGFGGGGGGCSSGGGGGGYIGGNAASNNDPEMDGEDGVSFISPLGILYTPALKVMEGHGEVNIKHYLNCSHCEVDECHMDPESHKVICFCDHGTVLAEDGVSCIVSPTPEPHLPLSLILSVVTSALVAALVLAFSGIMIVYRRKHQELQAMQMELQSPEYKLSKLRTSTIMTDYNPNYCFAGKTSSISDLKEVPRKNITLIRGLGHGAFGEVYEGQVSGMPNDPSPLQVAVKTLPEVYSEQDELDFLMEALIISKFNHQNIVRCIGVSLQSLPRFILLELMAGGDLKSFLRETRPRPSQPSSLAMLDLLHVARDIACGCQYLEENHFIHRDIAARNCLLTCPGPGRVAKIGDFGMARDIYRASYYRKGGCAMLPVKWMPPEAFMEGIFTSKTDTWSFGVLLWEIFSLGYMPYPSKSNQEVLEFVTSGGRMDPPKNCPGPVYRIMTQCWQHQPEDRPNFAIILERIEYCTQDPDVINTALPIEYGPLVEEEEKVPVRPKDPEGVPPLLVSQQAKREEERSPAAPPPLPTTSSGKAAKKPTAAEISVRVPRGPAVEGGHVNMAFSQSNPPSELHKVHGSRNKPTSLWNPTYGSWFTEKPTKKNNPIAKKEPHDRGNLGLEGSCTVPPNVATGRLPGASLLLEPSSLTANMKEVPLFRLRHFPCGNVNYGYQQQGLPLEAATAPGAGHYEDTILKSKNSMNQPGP
PRKD1, sequence (Q15139 whole entry): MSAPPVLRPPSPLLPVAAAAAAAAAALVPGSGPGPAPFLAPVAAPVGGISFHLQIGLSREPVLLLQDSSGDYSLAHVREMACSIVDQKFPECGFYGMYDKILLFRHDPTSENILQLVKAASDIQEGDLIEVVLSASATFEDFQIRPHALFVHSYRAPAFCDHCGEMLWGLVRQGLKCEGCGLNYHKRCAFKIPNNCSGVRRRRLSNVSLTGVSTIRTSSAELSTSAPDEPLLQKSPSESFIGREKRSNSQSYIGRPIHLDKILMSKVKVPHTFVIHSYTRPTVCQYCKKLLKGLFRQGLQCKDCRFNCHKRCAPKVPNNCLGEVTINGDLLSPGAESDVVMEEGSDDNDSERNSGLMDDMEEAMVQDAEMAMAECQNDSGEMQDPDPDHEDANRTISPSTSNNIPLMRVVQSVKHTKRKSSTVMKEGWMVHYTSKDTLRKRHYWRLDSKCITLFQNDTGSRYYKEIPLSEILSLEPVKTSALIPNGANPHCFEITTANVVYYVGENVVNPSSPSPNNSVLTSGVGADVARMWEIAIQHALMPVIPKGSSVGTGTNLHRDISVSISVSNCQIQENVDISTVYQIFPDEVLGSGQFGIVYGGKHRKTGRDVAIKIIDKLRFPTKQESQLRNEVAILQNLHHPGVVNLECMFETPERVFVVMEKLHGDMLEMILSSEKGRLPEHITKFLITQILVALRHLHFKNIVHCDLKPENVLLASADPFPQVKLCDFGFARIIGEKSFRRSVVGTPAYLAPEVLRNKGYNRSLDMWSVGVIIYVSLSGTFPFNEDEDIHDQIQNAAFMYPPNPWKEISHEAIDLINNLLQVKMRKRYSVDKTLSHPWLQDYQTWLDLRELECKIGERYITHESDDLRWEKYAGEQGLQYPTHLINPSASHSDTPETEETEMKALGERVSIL
CAMKK2, sequence (Q96RR4 whole entry): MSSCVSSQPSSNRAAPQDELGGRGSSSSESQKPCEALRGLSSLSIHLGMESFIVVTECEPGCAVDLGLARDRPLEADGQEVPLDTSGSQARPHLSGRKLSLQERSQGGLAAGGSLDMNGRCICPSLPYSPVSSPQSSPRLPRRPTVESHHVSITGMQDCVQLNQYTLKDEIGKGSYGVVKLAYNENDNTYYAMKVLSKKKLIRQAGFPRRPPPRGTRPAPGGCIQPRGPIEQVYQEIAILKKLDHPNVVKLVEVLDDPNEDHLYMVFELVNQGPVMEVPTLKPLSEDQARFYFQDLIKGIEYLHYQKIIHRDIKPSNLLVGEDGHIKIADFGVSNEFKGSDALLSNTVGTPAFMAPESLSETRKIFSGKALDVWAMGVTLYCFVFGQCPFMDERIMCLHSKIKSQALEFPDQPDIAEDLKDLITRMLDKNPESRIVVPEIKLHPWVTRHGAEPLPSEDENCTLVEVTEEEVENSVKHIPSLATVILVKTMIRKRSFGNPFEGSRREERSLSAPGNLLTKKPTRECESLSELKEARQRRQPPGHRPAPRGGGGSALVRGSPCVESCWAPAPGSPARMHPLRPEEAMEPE
NEK2, sequence (P51955 whole entry): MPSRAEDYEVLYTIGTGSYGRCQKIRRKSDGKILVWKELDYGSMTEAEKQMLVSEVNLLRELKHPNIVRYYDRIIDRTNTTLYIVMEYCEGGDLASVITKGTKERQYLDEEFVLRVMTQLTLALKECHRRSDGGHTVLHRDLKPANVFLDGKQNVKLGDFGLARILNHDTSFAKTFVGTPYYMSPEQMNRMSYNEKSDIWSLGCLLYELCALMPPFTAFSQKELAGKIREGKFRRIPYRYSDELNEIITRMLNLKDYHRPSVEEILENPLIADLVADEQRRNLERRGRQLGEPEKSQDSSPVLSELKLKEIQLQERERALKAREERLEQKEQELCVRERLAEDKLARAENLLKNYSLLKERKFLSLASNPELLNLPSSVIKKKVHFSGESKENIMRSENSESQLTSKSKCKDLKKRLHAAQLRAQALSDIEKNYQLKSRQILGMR

remaining activity at 1 µM [1]: 100%
remaining activity at 1 µM [2]: 61%
remaining activity at 1 µM [3]: 13%
remaining activity at 1 µM [4]: 95%
remaining activity at 1 µM [5]: 100%
remaining activity at 1 µM [6]: 97%
remaining activity at 1 µM [7]: 100%
remaining activity at 1 µM [8]: 94%
remaining activity at 1 µM [9]: 86%
remaining activity at 1 µM [10]: 100%
remaining activity at 1 µM [11]: 77%
remaining activity at 1 µM [12]: 95%
remaining activity at 1 µM [13]: 84%
remaining activity at 1 µM [14]: 86%
remaining activity at 1 µM [15]: 100%
remaining activity at 1 µM [16]: 94%
remaining activity at 1 µM [17]: 100%
remaining activity at 1 µM [18]: 96%
remaining activity at 1 µM [19]: 93%
remaining activity at 1 µM [20]: 86%
remaining activity at 1 µM [21]: 100%
remaining activity at 1 µM [22]: 96%
remaining activity at 1 µM [23]: 94%
remaining activity at 1 µM [24]: 100%
remaining activity at 1 µM [25]: 95%
remaining activity at 1 µM [26]: 100%
remaining activity at 1 µM [27]: 100%
remaining activity at 1 µM [28]: 100%
remaining activity at 1 µM [29]: 56%
remaining activity at 1 µM [30]: 100%
remaining activity at 1 µM [31]: 94%
remaining activity at 1 µM [32]: 72%
remaining activity at 1 µM [33]: 100%
remaining activity at 1 µM [34]: 85%
remaining activity at 1 µM [35]: 47%
SMILES: Cc1cn(-c2cc(NC(=O)c3ccc4c(c3)CN(c3cncnc3)C[C@@H]4C)cc(C(F)(F)F)c2)cn1 [Compound 6j]

From publication PMC5053573, “Structure-Based Design of Tetrahydroisoquinoline-7-carboxamides as Selective Discoidin Domain Receptor 1 (DDR1) Inhibitors” (Journal of Medicinal Chemistry, 2016)
